Here are results for 9 compounds from patent US9341616B2, “Sweet taste receptor chimeric proteins and use thereof” (AJINOMOTO CO., INC., priority 2014, dated 2016).

Where two headings read alike, the source gives them in different places. Residues, ends and D or L forms follow the SMILES beside them.

In the experiment the target is hT1R2/T1R3mosaicA (UniProt Q8TE23+Q925D8, A12W/A31M/A558R/A588V/A645S/A698V/A702T/A793V/A807V/C582S/C678S/E16H/E725V/F14L/F29L/F541I/F612A/F622V/F695L/H728R/I36V/I60P/I617V/I706V/I740A/I803L/K30R/K555R/K565R/K818R/K827G/L17P/L560F/L684P/L735F/L823M/L825Q/M19T/M644L/M744T/N52R/N547G/N58S/N63T/N675D/P545F/P561R/P564S/P61V/Q32K/Q53S/Q550E/Q56R/Q611L/Q757R/Q795R/Q831P/R632Q/S22P/S45E/S576L/S595F/S610P/S635P/S637R/S679G/S717H/T46A/T50G/T542A/T663I/T694M/T813A/V573A/V584A/V718M/V723A/V729T/V738A/V805L/V812A/V821L/W599R/W676R/W824R/Y680C/Y794L). The following applies: HEK293E cells.

Where [1] appears, read: Table 5, genes hT2/T3mA (hT1R2, T1R3mA).
Setting [2] is: Table 6, genes hT2/T1R3mA (hT1R2, T1R3mA).

Sequence of hT1R2/T1R3mosaicA (Q8TE23 20-839, stated change not applied): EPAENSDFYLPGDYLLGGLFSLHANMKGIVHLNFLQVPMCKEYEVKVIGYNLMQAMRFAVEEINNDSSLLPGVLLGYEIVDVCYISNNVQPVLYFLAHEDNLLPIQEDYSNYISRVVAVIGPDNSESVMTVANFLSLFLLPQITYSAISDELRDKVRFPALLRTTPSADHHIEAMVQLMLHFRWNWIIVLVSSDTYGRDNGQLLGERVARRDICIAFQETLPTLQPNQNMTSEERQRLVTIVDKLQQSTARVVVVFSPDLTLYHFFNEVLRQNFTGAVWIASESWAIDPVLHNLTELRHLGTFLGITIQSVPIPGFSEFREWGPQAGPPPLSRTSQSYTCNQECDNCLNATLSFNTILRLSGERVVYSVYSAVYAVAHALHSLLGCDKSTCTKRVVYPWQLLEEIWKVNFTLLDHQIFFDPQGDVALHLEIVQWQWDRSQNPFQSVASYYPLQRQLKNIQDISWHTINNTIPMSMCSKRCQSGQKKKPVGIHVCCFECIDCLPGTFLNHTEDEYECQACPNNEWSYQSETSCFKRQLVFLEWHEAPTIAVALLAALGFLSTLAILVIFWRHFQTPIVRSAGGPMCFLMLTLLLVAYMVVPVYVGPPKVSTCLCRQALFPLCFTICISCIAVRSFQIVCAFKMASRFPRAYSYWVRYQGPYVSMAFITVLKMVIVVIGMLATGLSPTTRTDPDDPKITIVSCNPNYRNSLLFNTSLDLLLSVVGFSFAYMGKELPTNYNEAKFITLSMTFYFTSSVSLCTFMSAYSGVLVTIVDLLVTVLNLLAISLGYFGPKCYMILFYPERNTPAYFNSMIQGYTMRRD
Sequence of hT1R2/T1R3mosaicA (Q925D8 with tags, fused parts or gaps with the stated changes limits assumed): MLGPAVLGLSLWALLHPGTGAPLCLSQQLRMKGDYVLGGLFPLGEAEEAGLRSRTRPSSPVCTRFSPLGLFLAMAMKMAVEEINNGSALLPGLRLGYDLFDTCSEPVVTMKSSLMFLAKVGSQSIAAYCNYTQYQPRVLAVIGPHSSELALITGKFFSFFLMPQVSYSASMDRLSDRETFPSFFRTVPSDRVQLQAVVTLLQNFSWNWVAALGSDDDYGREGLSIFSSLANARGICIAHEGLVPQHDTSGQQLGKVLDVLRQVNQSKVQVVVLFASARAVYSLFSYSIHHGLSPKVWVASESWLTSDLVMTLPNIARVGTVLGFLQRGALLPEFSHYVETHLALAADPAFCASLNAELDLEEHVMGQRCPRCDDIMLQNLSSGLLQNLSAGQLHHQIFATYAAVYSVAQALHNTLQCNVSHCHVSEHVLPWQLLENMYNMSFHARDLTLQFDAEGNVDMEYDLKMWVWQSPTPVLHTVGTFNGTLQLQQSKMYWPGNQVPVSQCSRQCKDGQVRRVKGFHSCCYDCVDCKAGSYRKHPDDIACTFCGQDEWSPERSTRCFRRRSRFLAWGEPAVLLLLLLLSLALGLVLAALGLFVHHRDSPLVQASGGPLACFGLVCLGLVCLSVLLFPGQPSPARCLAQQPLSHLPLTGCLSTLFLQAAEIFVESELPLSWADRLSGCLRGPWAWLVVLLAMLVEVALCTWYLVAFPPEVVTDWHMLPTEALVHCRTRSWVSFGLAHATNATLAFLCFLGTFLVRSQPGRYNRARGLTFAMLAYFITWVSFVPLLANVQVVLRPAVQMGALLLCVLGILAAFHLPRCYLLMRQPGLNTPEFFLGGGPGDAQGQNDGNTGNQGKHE

As to `CC1=CC(=O)NS(=O)(=O)O1` [Acesulfame K, acesulfame potassium], the S/N was 3.7 under setting [1] and 3.7 under setting [2].
For `COC(=O)[C@H](Cc1ccccc1)NC(=O)[C@H](CC(=O)O)NCCCc1ccc(OC)c(O)c1` [Advantame, advantame], the S/N by setting is: under setting [1], 7.6; under setting [2], 7.5.
The corresponding values for `COC(=O)[C@H](Cc1ccccc1)NC(=O)[C@@H](N)CC(=O)O` [Aspartame, aspartame] (HELM PEPTIDE1{D.F.[CO[*:1]]}$$$$V2.0) are 4.4 and 3.5.
For `COc1ccc(CCC(=O)c2c(O)cc(O[C@@H]3O[C@H](CO)[C@@H](O)[C@H](O)[C@H]3O[C@@H]3O[C@@H](C)[C@H](O)[C@@H](O)[C@H]3O)cc2O)cc1O` [NHDC, neohesperidin dihydrochalcone] the same measures were 2.9 and 3.8.
The corresponding values for `COC(=O)[C@H](Cc1ccccc1)NC(=O)[C@H](CC(=O)O)NCCC(C)(C)C` [Neotame, neotame] are 5.7 and 6.5.
In the case of `C[C@H](NC(=Nc1ccc(C#N)cc1)NCC(=O)O)c1ccccc1` [SC-45647, [3-[(S)-1-phenylethyl]-2-(4-cyanophenyl)guanidino]acetic acid], the S/N by setting is: under setting [1], 5.9; under setting [2], 6.8.
The corresponding values for `O=C1NS(=O)(=O)c2ccccc21.[Na]` [Saccharin Na, sodium saccharin] are 4.3 and 4.2.
For `OC[C@H]1O[C@H](O[C@]2(CCl)O[C@H](CCl)[C@@H](O)[C@@H]2O)[C@H](O)[C@@H](O)[C@H]1Cl` [Sucralose, sucralose] the same measures were 6.0 and 5.9.
For `OC[C@H]1O[C@@](CO)(O[C@H]2O[C@H](CO)[C@@H](O)[C@H](O)[C@H]2O)[C@@H](O)[C@@H]1O` [Sucrose, sucrose] the same measures were 2.6 and 2.3.
